Results published in patent US20150086646A1, “ANESTHETIC NEUTRALIZATION METHODS” (Instigo Biotech Ltd., priority 2012, published 2015).

Test system: Male rats (SD Rat)
Assay: Paw thermal sensitivity (Plantar test) in rats after regional anesthesia of the sciatic and saphenous nerves
Assay type: in vivo
Conditions: for response time relative to group 2 (anesthetic + buffer) / response time (average time before lifting the treated limb): 150 microliters at each locus; for elimination of effects of regional anesthesia (overall conclusion of the model): rat model, lidocaine HCl 2%/epinephrine 1:100,000 nerve block; for response time (average time before lifting the treated limb): 7 min after lidocaine HCl 2%/epinephrine 1:100,000, 5 minutes after administration, anesthetic + buffer group 20-35 seconds, no-anesthetic control 4-6 seconds
Protocol: An animal model was performed to test ROS/RNS dosages and effects on sensory anesthesia following administration of regional anesthesia, as follows. Male rats (SD Rat) weighing between 300-350 grams, were supplied by Harlan, Israel, and were randomly assigned to experimental groups. Rats were provided with sterile rodent diet with free access to drinking water. In the animal model, a testing chamber (Plantar test 3730 apparatus, made by Ugo Basile) was used in which the rats were placed on a surface which is heated and increases heat gradually. A measurement of time from placement of the rat's hind limb on the hot surface to lifting the hind limb was recorded. […] All rats were habituated to the testing facilities for five days before the model, and then introduced into the testing chamber two days prior to the testing of regional anesthesia in order to habituate rats to the apparatus. One day prior to regional anesthetic administration, baseline body weight measurements and baseline paw thermal sensitivity were recorded. Rats were randomly divided into 7 groups having 4 rats in each group. Group 1 was not administered anesthesia, but was administered saline solution as a vehicle at the time of regional anesthetic administration to groups 2-7. Groups 2 through 7 were administered lidocaine HCl 2%/epinephrine 1:100,000 ready to use solution (hereinafter, “anesthetic,”) 7 minutes before administering test items. Regional anesthetic was injected around the sciatic and saphenous nerves at a volume of 150 microliters at each site of the rat's left hind limb. Injection around the saphenous nerve was performed via local injection to/next to the adductor canal which runs on the medial aspect of the thigh between the vastus medialis and the sartorius muscles, about 2-3 cm below the inguinal canal. Injection around the sciatic nerve was performed via local injection to the sciatic notch, positioned 1 mm from the femoral shaft between the greater trochanter and ischial tuberosity pointing toward the ischium. Five minutes after injection of regional anesthetic, an assessment of the nerve blocks was performed by pinching the rat's paw to determine if the regional anesthetics were properly administered. Seven minutes after regional anesthetic administration, test agents were administered to the same loci, in a volume of 150 microliters at each locus. Groups 1 and 2 were administered a vehicle buffer as test agents. Group 3 was administered 0.1 mM hydrogen peroxide, formulated in saline solution. […] PON which was administered to rats was prepared by commercially available sodium peroxynitrite in NaCl and NaOH each at a concentration of 0.3 molar, available from Cayman Chemical. The commercially available PON was diluted to the desired concentrations for injection, by forming a suspension in 0.3M NaCl, 0.1M glycine having a pH of 10.5. All rats were tested for paw thermal sensitivity at 5, 10, 15, 20, 60 and 120 minutes after administration of the test items using the testing chamber. The results of average time before lifting the treated limb in each rat for each time point was calculated and is depicted in FIG. 2.

| SMILES | response time relative to group 2 (anesthetic + buffer) (group 3: 0.1 mM hydrogen peroxide in saline, 5, 10 and 15 minute time points) | statistical significance of the effect on response time (group 3: 0.1 mM hydrogen peroxide, 4 rats per group) | elimination of effects of regional anesthesia (overall conclusion of the model) | response time (average time before lifting the treated limb) (group 4: PON 40 mM) | response time (average time before lifting the treated limb) (group 5: PON 10 mM) | response time relative to group 2 (anesthetic + buffer) (group 6: PON 1 mM, 5 and 10 minute time points) |
| --- | --- | --- | --- | --- | --- | --- |
| OO [H2O2, hydrogen peroxide] | decreased response time | not statistically significant | effective in quickly eliminating effects of regional anesthesia |  |  |  |
| O=NOO [PON, sodium peroxynitrite] |  |  | effective in quickly eliminating effects of regional anesthesia | 4 to 6 s | 4 to 6 s | improved response time |
